Columns and labels:
[1] = serum estrogen levels and half life with estradiol transdermal patch in postmenopausal women (Ginsburg et al.); format: in vivo; conditions: female, human, other: transdermal patch, 0.1 mg, after removal of patch, worked out from mean half life, read-out: terminal half life (converted)
Description: Exogenous estrogen can be used to inhibit osteoclast activity and bone resorption by the “triple whammy” previously disclosed, inhibiting osteoclast activity by binding to osteoblasts and 1) increasing their output of OPG and 2) suppressing their RANKL production and 3) prolonging the lives of osteoblasts while simultaneously promoting osteoclast apoptosis. […] The dose is low enough and for a short enough period of time that it should not materially interfere with any of the menstrual processes. Alternatively, the patch may also be cut in half to obtain a half dose (0.05 ng/ml) cushion factor. Estrogen is available in oral, injectable, and patch forms from numerous suppliers and include Estrace, Cenestin, Enjuvia, Femtrace, Gynodiol, Menest etc. . . .
SERM/Estradiol: If the patient is on birth control, which is basically 3 weeks of estrogen followed by 1 week of sugar pills, the SERM raloxifene could be substituted for the sugar pills. Alternatively, low levels of estrogen could be substituted for one or more of the sugar pills, with the goal of keeping the serum levels around 0.1 ng/ml, without the sharp transition drop, and without the potential for interfering with progression of menstruation. Alternatively, an estrogen patch may be used. […]

[2] = tested on: patients with PMS; conditions: double blind study; cited from earlier work
[3] = testosterone levels with Androderm transdermal patch; conditions: human, in vivo, other: transdermal patch
Description: When androgens such as testosterone bind to osteoblast receptors, the osteoblast is stimulated to form new bone (i.e. move calcium into bone). […] Accordingly, administration of androgens such as testosterone, or administration of endocrine hormones that upregulate indigenous production of androgens (e.g. in males, luteinizing hormone, gonadotropin/luteinizing hormone releasing hormone), can be used to reduce extracellular calcium levels by moving calcium back into bone. Testosterone USP is natural testosterone that has been approved by the United States Pharmacopoeia and is available as a bulk chemical. Testosterone is well-absorbed from transdermal (topical) creams and gels. Dosage forms also include sublingual drops, buccal or sublingual troches or tablet triturates. […] In the form known as Testosterone Cypionate, testosterone can be administered by intramuscular injection every 1-3 weeks. WatsonPharma's Androderm transdermal 2.5 mg or 5 mg testosterone patch provides a more convenient way to administer testosterone, and provides the ability to administer the testosterone over a desired time frame much more precisely (as will be discussed further in representative examples). Androderm patches can ramp up testosterone levels quickly (e.g. 349 ng/dl within 3 hours, 528 ng/dl within 6 hours, when applied to the back) and can be used for up to 24 hours. […]

[4] = tested on: blood calcium levels; conditions: more potent than human calcitonin; cited from earlier work
[5] = tested on: tryptophan hydroxylase (TPH); conditions: estrogen treated monkey; cited from earlier work
[6] = tested on: serum calcium; conditions: 7.5 mg/kg, 2 h infusion x3 days; cited from earlier work
[7] = tested on: serum calcium; conditions: injections of 4-8 IU/kg (IM or SubQ), most patients; cited from earlier work

## C[C@]12CC[C@@H]3c4ccc(O)cc4CC[C@H]3[C@@H]1CC[C@@H]2O [estradiol]
[1]
  half-life: ~9 h

## N[C@@H](Cc1cc(I)c(Oc2cc(I)c(O)c(I)c2)c(I)c1)C(=O)O [levothyroxine]
[2]
  benefit over the placebo: did not show any benefit over the placebo

## C[C@]12CC[C@H]3[C@@H](CCC4=CC(=O)CC[C@@]43C)[C@@H]1CC[C@@H]2O [testosterone]
[3]
  time to return to baseline levels after removal of the patch: 3 to 4 h

## CC(C)C[C@H](NC(=O)[C@H](CCCCN)NC(=O)CNC(=O)[C@H](CC(C)C)NC(=O)[C@@H](NC(=O)[C@@H]1CSSC[C@H](N)C(=O)N[C@@H](CO)C(=O)N[C@@H](CC(N)=O)C(=O)N[C@@H](CC(C)C)C(=O)N[C@@H](CO)C(=O)N[C@@H]([C@@H](C)O)C(=O)N1)C(C)C)C(=O)N[C@@H](CO)C(=O)N[C@@H](CCC(N)=O)C(=O)N[C@@H](CCC(=O)O)C(=O)N[C@@H](CC(C)C)C(=O)N[C@@H](Cc1c[nH]cn1)C(=O)N[C@@H](CCCCN)C(=O)N[C@@H](CC(C)C)C(=O)N[C@@H](CCC(N)=O)C(=O)N[C@H](C(=O)N[C@@H](Cc1ccc(O)cc1)C(=O)N1CCC[C@H]1C(=O)N[C@@H](CCCNC(=N)N)C(=O)N[C@H](C(=O)N[C@@H](CC(N)=O)C(=O)N[C@H](C(=O)NCC(=O)N[C@@H](CO)C(=O)NCC(=O)N[C@H](C(=O)N1CCC[C@H]1C(N)=O)[C@@H](C)O)[C@@H](C)O)[C@@H](C)O)[C@@H](C)O [salmon calcitonin]
[4]
  potency relative to human calcitonin: 40-50 times

## estrogen
[5]
  increase in tryptophan hydroxylase (TPH): nine-fold

## CC(O)(P(=O)(O)O)P(=O)(O)O [etidronate disodium]
[6]
  duration of efficacy: more than a week

## Calcitonin
[7]
  drop in serum calcium levels: 1 to 2 mg/dL
